This note sets out measurements from patent US5034530A, “Imidazoquinoxaline compounds and their preparation and use” (Novo Nordisk A/S, priority 1988, dated 1991).

The experiment relates to benzodiazepine receptors. Description: in vivo displacement of 3H-flunitrazepam specific binding from brain benzodiazepine receptors in mice. As to conditions: dose reducing specific 3H-flunitrazepam binding in living mouse brain to 50% of control; test substance i.p. 15 min before i.v. 3H-FNM; female mice; forebrain. The source says: The pharmaceutical properties of the compounds of the invention can be illustrated by determining their capability for displacing radioactive labelled flunitrazepam from benzodiazepine receptors.
The displacement activity of the compounds of the invention may be found by determining the ED50 value. The ED50 value represents the dose (mg/kg) of a test substance which causes the specific binding of flunitrazepam to benzodiazepine receptors in a living brain to be reduced to 50% of the control value.
Such an in vivo test is carried out as follows:
Principle. Twenty minutes after a dose of ^3 H-flunitrazepam (^3 H-FNM) (200 μCi/kg, i.v.) the amount of specific ^3 H-FNM binding to brain benzodiazepine receptors has reached its maximal value.
Test procedure. Suspensions of test substances (2 mg/ml) are prepared in 5% Duphasol-X (TM Duphar, castor oil-ethylene oxide derivative for emulsifying and solubilizing oil and other water-insoluble substances) by sonification for 10 min using a Branson B15 microtip ultrasonifier (setting 7). Groups of three mice (female, NMR, 18-22 grams) are injected with the test substance at 100 mg/kg intraperitoneally. Fifteen minutes after test substance administration the mice are challenged with 4 μCi intravenously of ^3 H-FNM (70-90 Ci/mole) in 200 μl physiological saline. Twenty minutes after ^3 H-FNM administration mice are sacrificed by decapitation, the forebrains rapidly excised (within 30 sec) and homogenized in 12 ml of icecold 25 mM KH2 PO4, pH 7.1, using an Ultra-Turrax homogenizer fitted with an N 10 shaft. […] The amounts of radioactivity on the filters are determined by conventional scintillation counting. […]
Results. The ED50 value is determined from dose response curves. If only one dose of test substance is administered the ED50 value is calculated as follows, provided that the inhibition of specific binding is within the range of 25-75%: [formula] where Co is specific binding in controls and Cx is specific binding in mice treated with test substance.
On the technique in general: In a radioligand displacement assay an active substance lowers the binding of a labelled ligand.

As to `Cc1nc(-c2ncn3c2c(C)nc2ccccc23)no1` [Compound 8, 4-Methyl-3-(5-methyl-1,2,4-oxadiazol-3-yl)-imidazo[1,5-a]quinoxaline], the ED50 (in general, the dose at which the effect has come halfway, by size or by number of responders) came out at 1.8 mg/kg.

In the case of `Cc1nc2ccccc2n2cnc(-c3nc(C4CC4)no3)c12` [Compound 10, 3-(3-Cyclopropyl-1,2,4-oxadiazol-5-yl)-4-methyl-imidazo[1,5-a]quinoxaline], the 50% effective dose (ED50) came to 3.5 mg/kg. As for `Cc1nc2ccccc2n2cnc(-c3noc(C4CC4)n3)c12` [Compound 7, 3-(5-Cyclopropyl-1,2,4-oxadiazol-3-yl)-4-methyl-imidazo[1,5-a]quinoxaline], the figure is 1.3 mg/kg.
